We go through 3 molecules from patent publication US9642803B2, “Nano-sized particles comprising multi-headed amphiphiles for targeted drug delivery” (Ben-Gurion University Of The Negev Research And Development …, priority 2009, dated 2017).

Series [1] is described as follows: Percentage of encapsulation in bolaamphiphile vesicles. Format: physicochemical.
A further series concerns mice. As to the kind of experiment: Hot plate test (analgesic effect) in mice. Format: in vivo. To be noted: for response time: nanoparticles by ethanol injection, encapsulated groups pre-injected with pyridostigmine 0.5 mg/kg; for analgesic effect: i.v. 20 mg/Kg. The procedure:
The response of mice to a transient painful stimulus was measured following administration of the test material (either i.v. into the tail vein or per os by gavages). The analgesic effect was determined by placing the mouse on a hot plate (55° C., IITC model 39) and recording the time for withdrawing/licking the hind limb (hot plate test). To prevent tissue damage and suffering of the animal, the experiment was terminated after 20 sec if no response was evoked. The response latencies were recorded and either used by themselves for comparison or normalized as percent of maximal possible effect (MPE) using the equation: […]
where: RT—is the response latency after treatment; RT0—is the response latency of a mouse without treatment and RTmax—is the maximal response time allowed (20 sec).
Derivative 4-nanoparticles comprising leu-enkephalin, prepared as described in Example 9 by FHS (film hydration flowed by sonication), were administered to mice and their ability to exert an analgesic effect was measured by the hot plate test described in Methods.
Nanoparticles were made from 10 mg/ml Derivative 4 with cholesterol and cholesteryl hemisuccinate as additives (2:1:1) and 10% molar ratio chitosan (CS)-vernolic acid conjugate in presence of 2.5 mg/ml leu-enkephalin. In these nanoparticles, CS-vernolic acid conjugate serves as a pendant on the nanoparticles/vesicles in order to enhance penetrability.
Nanoparticles were injected into the tail vein at a dose of 20 mg/kg bolaamphiphile, which corresponds to 5 mg/kg leu-enkephaime. Empty nanoparticles and free leu-enkephalin injected in a dose of 20 mg/kg, were used as a negative control and morphine at a dose of 5 mg/kg was used as a positive control. Mice were pretreated with 0.5 mg/kg pyridostigmine 15 min prior to the injection of the nanoparticles. Pyridostigmine inhibits the activity of acetylcholine esterase and thus prevents hydrolysis of the acetyl choline headgroups in the periphery.
Analgesic effect studies (hot plate test) in mice were carried out using nanoparticles comprising Derivative 1 or Derivative 4 and prepare by the ethanol injection technique described in Example 10. The hot plate test was preformed as described in Example 19. All mice treated with encapsulated leu-enkephalin, were pre-injected with the periphery acetylcholine esterase inhibitor pyridostigmine (0.5 mg/kg).
The efficacy of delivering leu-enkephalin in various nanoparticles in oral formulations versus i.v. injectable formulations were tested (a hot plate test of Example 20). Thus, formulations comprising leu-enkephalin encapsulated in the following nanoparticles were prepared: (a) nanoparticles comprising Derivative 4, cholesterol, cholesteryl hemisuccinate and vernolyl-chitosan prepared according to Example 13(i); (b) nanoparticles comprising distearyl phosphatidyl choline (DSPC) as the amphiphilic compound, cholesterol, prepared as described in Example 13(iii).
Formulations comprising […] leu-enkephalin loaded nanoparticles were administered by gavages at a dose of 100 mg/kg bolaamphiphile, which corresponds to 25 mg/kg leu-enkephalin. The same dose of free leu-enkephalin was administered by gavages as a control. The results were compared to liposomes made from 20 mg/ml DSPC in presence of 5 mg/ml leu-enkephalin and administered at a dose of 200 mg/kg phospholipid, which corresponds to 50 mg/kg leu-enkephalin. The mice were preinjected with pyridostigmine as in example 20. The results, are shown in FIG. 2, represent the analgesic effect as percent of maximal possible response (MPE).
In order to assess an optimized delivery and targeted release efficiencies, the analgesic effect of formulations containing nanoparticles comprising Derivative 4, cholesterol, cholesteryl hemisuccinate and vernoyl chitosan as additives (chitosan nanoparticles), and various amounts of leu-enkephalin was studied by the hot plate test. Nanoparticles were prepared as described in Example 15. […]

Regarding “[5-Leucine] Enkephalin [free leu-enkephalin]”, the “percentage of encapsulation at pH above pI relative to pH below pI” value in series [1] (Derivative 4/cholesterol/cholesteryl hemisuccinate nanoparticles, TBS pH 8.5) lay in the range of 2 to 4 times. In addition, the response time worked out at 3 s with mice (10 minutes after i.v. injection), 2 s with mice (30 minutes after i.v. injection) and 2 s with mice (60 minutes after i.v. injection). Further, the analgesic effect result with mice (mice pretreated with pyridostigmine, Example 27) is listed as “no significant analgesic effect”; in the series with mice (Example 28), “no significant analgesic effect”.
Consider 5(6)-Carboxyfluorescein [CF], for which the “percentage of CF encapsulation” value in series [1] (Derivative 4/cholesterol/cholesteryl hemisuccinate/PEG(201) or PEG(202) 100:25:25:10 nanoparticles, PBS pH 8.0) is given as 20%.
As for `CN(C)C(=O)Oc1ccc[n+](C)c1.[Br-]` [pyridostigmine, 3-(Dimethylamino-carbonyloxy)-1-methylpyridinium bromide], the “analgesic response of pyridostigmine by itself” value in the series with mice (0.5 mg/kg) is given as “does not evoke an analgesic response”.
